ChEMBL document CHEMBL1201862, “PubChem BioAssay data set” (2004)
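A five-concentration, 48-hour dose response in 96-well plates underlies each endpoint, interpolated linearly between surrounding concentrations. GI50: concentration for 50% inhibition of growth.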 Active and inactive are the calls of the source. Cut-off read from the data, not from the text of the source: active = GI50 up to about 1.1 µM and inactive = higher.

What was measured:
Assay in all cases: inhibition of tumour cell growth, NCI panel, 48 h
[1] = tested on: A549
[2] = tested on: CAKI-1
[3] = tested on: CCRF-CEM
[4] = tested on: COLO 205
[5] = tested on: EKVX
[6] = tested on: HCC 2998
[7] = tested on: HOP-62
[8] = tested on: KM12
[9] = tested on: LOX IMVI
[10] = tested on: MOLT-4
[11] = tested on: NCI-H460
[12] = tested on: OVCAR-5
[13] = tested on: SF-295
[14] = tested on: SK-MEL-2
[15] = tested on: SK-MEL-5
[16] = tested on: SK-OV-3
[17] = tested on: SNB-19
[18] = tested on: UACC-62
[19] = tested on: UO-31
[20] = tested on: Malme-3M

Measured: GI50

C=CCc1cccc(C(=O)/C=C(O)/C=C/c2ccccc2Cl)c1O
inactive: [1] 8.91 µM | [2] 42.6 µM | [3] 6.82 µM | [4] 25.1 µM | [5] 29.5 µM | [6] 33.9 µM | [7] 16.6 µM | [8] 17.2 µM | [9] 7.01 µM | [10] 3.96 µM | [11] 24.9 µM | [12] 33.4 µM | [13] 9.27 µM | [14] 10.4 µM | [15] 7.16 µM | [16] 23.6 µM | [17] 21 µM | [18] 13.4 µM | [19] 9.18 µM

O=C1C=C(Nc2ccccc2C(=O)c2ccccc2)c2ccccc2C1=O
inactive: [1] > 100 µM | [2] > 100 µM | [4] > 100 µM | [5] > 100 µM | [6] > 100 µM | [7] > 100 µM | [8] 33.3 µM | [20] > 100 µM | [11] 71 µM | [12] > 100 µM | [13] > 100 µM | [14] > 100 µM | [16] > 100 µM | [17] > 100 µM | [18] 8.04 µM | [19] > 100 µM

COc1cccc(-n2c(N)c(-c3nc4cc(C(F)(F)F)ccc4s3)c3ccc([N+](=O)[O-])cc3c2=O)c1
inactive: [1] > 100 µM | [2] > 100 µM | [4] > 100 µM | [5] > 100 µM | [6] > 100 µM | [7] > 100 µM | [8] > 100 µM | [10] > 100 µM | [20] > 100 µM | [11] > 100 µM | [12] > 100 µM | [13] > 100 µM | [14] > 100 µM | [15] > 100 µM | [16] > 100 µM | [17] > 100 µM | [18] > 100 µM | [19] > 100 µM

Nc1ccc(Cc2ccc(/N=C\c3ccc(OCc4cccc(COc5ccc(/C=N\c6ccc(Cc7ccc(N)cc7)cc6)cc5)n4)cc3)cc2)cc1
inactive: [1] > 100 µM | [2] > 100 µM | [3] > 100 µM | [4] > 100 µM | [5] 94.6 µM | [6] > 100 µM | [7] 37.5 µM | [8] > 100 µM | [9] > 100 µM | [10] > 100 µM | [20] 63.1 µM | [11] > 100 µM | [12] > 100 µM | [13] 50.1 µM | [14] 39.2 µM | [15] > 100 µM | [17] 41.7 µM | [18] > 100 µM | [19] > 100 µM

Cc1nn(C(=O)c2ccncc2)c2c1C(c1ccccc1[N+](=O)[O-])SC(=N)N2 (stereo not given)
inactive: [1] > 10 µM | [2] > 10 µM | [3] 8.24 µM | [4] > 10 µM | [5] > 10 µM | [6] > 10 µM | [7] > 10 µM | [8] > 10 µM | [9] > 10 µM | [10] > 10 µM | [20] > 10 µM | [11] > 10 µM | [12] > 10 µM | [13] > 10 µM | [14] > 10 µM | [15] > 10 µM | [17] > 10 µM | [18] > 10 µM

COc1ccc(S(=O)(=O)N/N=C/CN2C(=O)c3ccccc3C2=O)cc1
inactive: [1] > 100 µM | [2] > 100 µM | [3] > 100 µM | [4] > 100 µM | [5] > 100 µM | [6] > 100 µM | [7] > 100 µM | [8] > 100 µM | [9] > 100 µM | [10] > 100 µM | [20] > 100 µM | [11] > 100 µM | [13] > 100 µM | [14] > 100 µM | [15] > 100 µM | [17] > 100 µM | [18] > 100 µM | [19] > 10 µM

COC(=O)c1scc(N)c1-n1ccc(=O)[nH]c1=O
inactive: [1] > 100 µM | [2] > 100 µM | [3] > 100 µM | [4] > 100 µM | [5] > 100 µM | [6] > 100 µM | [8] > 100 µM | [9] > 100 µM | [10] > 100 µM | [20] > 100 µM | [11] > 100 µM | [12] > 100 µM | [14] > 100 µM | [15] > 100 µM | [17] > 100 µM | [18] > 100 µM | [19] > 100 µM

CCSc1nn(-c2c3ccccc3nc3ccccc23)c(=S)s1
inactive: [1] > 100 µM | [2] > 100 µM | [3] > 100 µM | [4] > 100 µM | [5] > 100 µM | [6] > 100 µM | [7] > 100 µM | [8] > 100 µM | [9] > 100 µM | [10] > 100 µM | [11] > 100 µM | [12] > 100 µM | [13] > 100 µM | [14] > 100 µM | [15] > 100 µM | [16] > 100 µM | [17] > 100 µM | [18] > 100 µM | [19] > 100 µM

CN(C)CN1CSC(=S)N(CN(C)C)C1
inactive: [1] > 100 µM | [2] > 100 µM | [3] 8.15 µM | [5] > 100 µM | [6] > 100 µM | [7] > 100 µM | [8] > 100 µM | [9] > 100 µM | [10] 26.7 µM | [20] > 100 µM | [11] 42.6 µM | [12] > 100 µM | [13] > 100 µM | [14] 33.3 µM | [15] > 100 µM | [17] > 100 µM | [18] > 100 µM | [19] > 100 µM

Cc1ccc2[nH]c3c(c(=O)n(C)c(=O)n3C)c2c1
inactive: [1] > 100 µM | [2] > 100 µM | [3] > 100 µM | [4] > 100 µM | [5] > 100 µM | [6] > 100 µM | [7] > 100 µM | [8] > 100 µM | [9] > 100 µM | [10] > 100 µM | [20] > 100 µM | [12] > 100 µM | [13] > 100 µM | [14] > 100 µM | [15] > 100 µM | [16] > 100 µM | [17] > 100 µM | [18] > 100 µM | [19] > 100 µM

Cc1ncc([N+](=O)[O-])n1CCNC(=O)CCCn1ccnc1[N+](=O)[O-]
inactive: [1] > 100 µM | [2] > 100 µM | [3] > 100 µM | [4] > 100 µM | [5] > 100 µM | [6] > 100 µM | [7] > 100 µM | [8] > 100 µM | [9] > 100 µM | [10] > 100 µM | [20] > 100 µM | [11] > 100 µM | [12] > 100 µM | [13] > 100 µM | [14] > 100 µM | [15] > 100 µM | [17] > 100 µM | [18] > 100 µM | [19] > 100 µM
